Test results taken from patent US7858635B2 (priority 2005, dated 2010).
Where two headings read alike, the source gives them in different places.

Assays:
[1] = target: T1, M1 muscarinic receptor (Homo sapiens, UniProt P11229); experiment: Functional mobilization of intracellular calcium (FLIPR, Fluo-3), M1-CHO cells; type: cell-based; details: for Emax: read-out: M1 Efficacy
T1 construct: expressed in transfected cells; host or cells: CHO cells (M1-CHO, under zeocin and G418 selection)
T1 sequence (P11229 1-460): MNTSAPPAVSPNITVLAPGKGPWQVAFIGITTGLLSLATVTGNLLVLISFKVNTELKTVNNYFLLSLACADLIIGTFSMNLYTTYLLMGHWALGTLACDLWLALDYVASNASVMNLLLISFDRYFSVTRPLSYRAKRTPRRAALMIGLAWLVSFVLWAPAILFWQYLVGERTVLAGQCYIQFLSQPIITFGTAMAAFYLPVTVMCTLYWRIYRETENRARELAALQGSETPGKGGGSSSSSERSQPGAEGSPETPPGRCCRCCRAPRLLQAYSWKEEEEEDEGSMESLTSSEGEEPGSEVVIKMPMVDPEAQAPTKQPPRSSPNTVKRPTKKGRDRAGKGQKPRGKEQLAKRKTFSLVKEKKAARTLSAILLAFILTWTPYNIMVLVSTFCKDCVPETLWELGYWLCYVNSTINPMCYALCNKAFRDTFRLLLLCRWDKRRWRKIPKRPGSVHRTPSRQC
Summary of the method: (§1)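 Fluo-3 read-out, ex 488/em 540 nm, 60 sec on FLIPR 3. For agonist mode, compound added directly; for inhibition, 15 min compound pre-incubation before carbachol at EC80 (added as a 3× solution), or co-application. Buffer pH 7.4 with 1 mM probenecid; DMSO 0.5%.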

[2] = target: T2, M4 muscarinic receptor (Homo sapiens, UniProt P08173); experiment: Functional mobilization of intracellular calcium (FLIPR, Fluo-3), M4-CHO cells; type: cell-based; details: for Emax: read-out: M4 Efficacy
T2 construct: expressed in transfected cells; host or cells: CHO cells (M4-CHO, under puromycin, zeocin and blasticidin selection)
T2 sequence (P08173 1-479): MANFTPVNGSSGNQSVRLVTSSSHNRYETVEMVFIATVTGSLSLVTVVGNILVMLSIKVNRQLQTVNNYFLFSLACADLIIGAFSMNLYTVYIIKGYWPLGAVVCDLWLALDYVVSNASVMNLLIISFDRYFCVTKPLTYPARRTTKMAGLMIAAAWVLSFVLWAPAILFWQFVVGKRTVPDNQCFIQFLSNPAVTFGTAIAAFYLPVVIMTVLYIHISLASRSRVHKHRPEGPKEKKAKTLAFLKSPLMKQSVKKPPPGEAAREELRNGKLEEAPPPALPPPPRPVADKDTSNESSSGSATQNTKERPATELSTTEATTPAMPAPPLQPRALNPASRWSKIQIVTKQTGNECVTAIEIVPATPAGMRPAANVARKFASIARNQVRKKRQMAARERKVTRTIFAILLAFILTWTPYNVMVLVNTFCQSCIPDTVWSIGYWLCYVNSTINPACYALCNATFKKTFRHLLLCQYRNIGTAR
Summary of the method: as §1

[3] = compound nos. 1-454, 100% efficacy is the maximum response obtained with the Carbachol control
[4] = compound nos. 1-454, M1-CHO cells, calcium mobilization
[5] = compound nos. 1-454, M4-CHO cells, calcium mobilization
[6] = compound nos. 455-509, 100% efficacy is the maximum response obtained with the Carbachol control

| SMILES | Emax [1, 3] [%] | M1 Activity [1, 4] | Emax [2, 3] [%] | M4 Activity [2, 5] | further results |
| --- | --- | --- | --- | --- | --- |
| CC(=O)N[C@H]1CC2(CCN(C3CCCCCC3)CC2)c2ccccc21 [compound 143] | 65 to 85 | +++ (activity was measured to be less than or equal to 0.7 μM) | > 70 | +++ (activity was measured to be less than or equal to 0.1 μM) |  |
| CCOC(=O)N1CCC(N2CCC3(CC2)CN(C(=O)c2ccno2)c2ccc(F)cc23)CC1 [compound 321] | 65 to 85 | ++ (activity was measured to be between 0.7 μM and 3.0 μM) | 55 to 70 | + (activity was measured to be greater than or equal to 4.0 μM) |  |
| Cc1ccc2c(c1)C1(CCN(C3CC4CCC3C4)CC1)CN2C(=O)c1ccno1 (stereo not drawn) [compound 292] | 65 to 85 | ++ (activity was measured to be between 0.7 μM and 3.0 μM) | 55 to 70 | + (activity was measured to be greater than or equal to 4.0 μM) |  |
| COc1ccc(N2CCC(N3CCC4(CC3)CN(C(=O)N(C)C)c3ccc(F)cc34)CC2)cc1 [compound 442] | 65 to 85 |  | 55 to 70 |  | M1 Activity ([1]; compound nos. 1-454): ++ (activity was measured to be between 0.7 μM and 3.0 μM); M4 Activity ([2]; compound nos. 1-454): ++ (activity was measured to be between 0.1 μM and 4.0 μM) |
| Cc1ccc2c(c1)C1(CCN(C3C4CCCC3CCC4)CC1)CN2 (stereo not drawn) [compound 72] | 65 to 85 | +++ (activity was measured to be less than or equal to 0.7 μM) | 55 to 70 | ++ (activity was measured to be between 0.1 μM and 4.0 μM) |  |
| C#CCOC(=O)N1CCC(CN2CCC3(CC2)CN(C(C)=O)c2ccc(F)cc23)CC1 [compound 316] | < 65 | + (activity was measured to be greater than or equal to 3.0 μM) | < 55 | + (activity was measured to be greater than or equal to 4.0 μM) |  |
| CN(C)C(=O)N1CC2(CCN(CC3CCN(c4cnccn4)C3)CC2)c2cc(F)ccc21 (stereo not drawn) [compound 448] | > 85 |  | 55 to 70 |  | M1 Activity ([1]; compound nos. 1-454): +++ (activity was measured to be less than or equal to 0.7 μM); M4 Activity ([2]; compound nos. 1-454): +++ (activity was measured to be less than or equal to 0.1 μM) |
| CN(C)C(=O)N1CC2(CCN(C3CCN(c4cncc(-c5ccccc5O)n4)CC3)CC2)c2ccccc21 [compound 481] |  |  |  |  | Emax [1, 6]: < 25%; M1 Activity ([1]; compounds 455-509): +++ (activity was measured to be less than or equal to 2.0 μM); Emax [2, 6]: < 25%; M4 Activity ([2]; compounds 455-509): ++ (activity was measured to be between 2.0 μM and 5.0 μM) |
| CCOC(=O)N1CCC(N2CCC3(CC2)CN(C(=O)O[C@H]2CCOC2)c2ccc(F)cc23)CC1 [compound 428] | < 65 |  | < 55 |  | M1 Activity ([1]; compound nos. 1-454): ++ (activity was measured to be between 0.7 μM and 3.0 μM); M4 Activity ([2]; compound nos. 1-454): + (activity was measured to be greater than or equal to 4.0 μM) |
| Cc1csc(N2CCC(N3CCC4(CCN(C(=O)N(C)C)c5ccccc54)CC3)CC2)n1 [compound 508] |  |  |  |  | Emax [1, 6]: 25 to 100%; M1 Activity ([1]; compounds 455-509): ++ (activity was measured to be between 2.0 μM and 5.0 μM); Emax [2, 6]: 25 to 100%; M4 Activity ([2]; compounds 455-509): ++ (activity was measured to be between 2.0 μM and 5.0 μM) |
| Clc1ccc2c(c1)C1(CCO2)CCN(CC2CCOCC2)CC1 [compound 288] | < 65 | + (activity was measured to be greater than or equal to 3.0 μM) | < 55 | + (activity was measured to be greater than or equal to 4.0 μM) |  |
| CC(=O)N1CC2(CCN(C3CCOCC3)CC2)c2cc(F)ccc21 [compound 268] | < 65 | + (activity was measured to be greater than or equal to 3.0 μM) | < 55 | + (activity was measured to be greater than or equal to 4.0 μM) |  |
| CCCOC(=O)N1C2CCC1CC(N1CCC3(CC1)CN(C(=O)O[C@@H]1CCOC1)c1ccc(F)cc13)C2 (stereo partly drawn) [compound 297] |  | + (activity was measured to be greater than or equal to 3.0 μM) |  | + (activity was measured to be greater than or equal to 4.0 μM) | M1 Efficacy [1, 3]: ++ (efficacy was calculated to be between 85% and 65%); M4 Efficacy [2, 3]: ++ (efficacy was calculated to be between 70% and 55%) |
| COCCOC(=O)N1C2CCC1CC(N1CCC3(CC1)C(=O)Nc1ccccc13)C2 (stereo not drawn) [compound 71] | < 65 | +++ (activity was measured to be less than or equal to 0.7 μM) | < 55 | ++ (activity was measured to be between 0.1 μM and 4.0 μM) |  |
| CCOC(=O)N1CCC(N2CCC3(CC2)CN(C(C)=O)c2ccc(-c4ccccc4OC)cc23)CC1 [compound 150] | 65 to 85 | +++ (activity was measured to be less than or equal to 0.7 μM) | > 70 | + (activity was measured to be greater than or equal to 4.0 μM) |  |
| CN(C)C(=O)N1C2CCC1CC(N1CCC3(CC1)COc1ccc(F)cc13)C2 (stereo not drawn) [compound 203] | 65 to 85 | +++ (activity was measured to be less than or equal to 0.7 μM) | < 55 | ++ (activity was measured to be between 0.1 μM and 4.0 μM) |  |
| CC(=O)N1CC2(CCN(CC3CC4CCC3CC4)CC2)c2cc(F)ccc21 (stereo not drawn) [compound 366] | < 65 | ++ (activity was measured to be between 0.7 μM and 3.0 μM) | < 55 | + (activity was measured to be greater than or equal to 4.0 μM) |  |
| CCOC(=O)N1CCC(N2CCC3(CC2)CN(C(C)=O)c2ccc(OC)cc23)CC1 [compound 340] | < 65 | ++ (activity was measured to be between 0.7 μM and 3.0 μM) | < 55 | + (activity was measured to be greater than or equal to 4.0 μM) |  |
| CC(=O)N(C)[C@H]1CC2(CCN(C[C@H]3C[C@H]4CC[C@@H]3C4)CC2)c2ccccc21 [compound 190, N—((S)-1′-((1R,2S,4S)-bicyclo[2.2.1]heptan-2-ylmethyl)-2,3-dihydrospiro[indene-1,4′-piperidine]-3-yl)-N-methylacetamide] | > 85 | + (activity was measured to be greater than or equal to 3.0 μM) | 55 to 70 | + (activity was measured to be greater than or equal to 4.0 μM) |  |
| CCOC(=O)N1C2CCC1CC(N1CCC3(CC1)CN(C(=O)OC1CCC1)c1ccc(F)cc13)C2 (stereo not drawn) [compound 409] | > 85 |  | > 70 |  | M1 Activity ([1]; compound nos. 1-454): +++ (activity was measured to be less than or equal to 0.7 μM); M4 Activity ([2]; compound nos. 1-454): +++ (activity was measured to be less than or equal to 0.1 μM) |
| CCCc1cnc(N2CCC(N3CCC4(CC3)CN(C(=O)N(C)C)c3ccccc34)CC2)cn1 [compound 459] |  |  |  |  | Emax [1, 6]: > 100%; M1 Activity ([1]; compounds 455-509): ++ (activity was measured to be between 2.0 μM and 5.0 μM); Emax [2, 6]: 25 to 100%; M4 Activity ([2]; compounds 455-509): ++ (activity was measured to be between 2.0 μM and 5.0 μM) |
| CCOC(=O)N1C2CCC1CC(N1CCC3(CC1)CN(C(=O)c1ccc(F)cc1)c1ccc(F)cc13)C2 (stereo not drawn) [compound 222] | < 65 | + (activity was measured to be greater than or equal to 3.0 μM) | < 55 | + (activity was measured to be greater than or equal to 4.0 μM) |  |
| CCOC(=O)N(C)[C@H]1CC2(CCN(C[C@H]3C[C@H]4CC[C@H]3C4)CC2)c2ccccc21 [compound 347] | 65 to 85 | +++ (activity was measured to be less than or equal to 0.7 μM) | > 70 | ++ (activity was measured to be between 0.1 μM and 4.0 μM) |  |
| CC(=O)N1CC2(CCN(C3CCN(c4nc(C)ns4)CC3)CC2)c2ccccc21 [compound 482] |  |  |  |  | Emax [1, 6]: > 100%; M1 Activity ([1]; compounds 455-509): +++ (activity was measured to be less than or equal to 2.0 μM); Emax [2, 6]: 25 to 100%; M4 Activity ([2]; compounds 455-509): ++ (activity was measured to be between 2.0 μM and 5.0 μM) |
